# Reference: patent US20140274684A1, “Compounds, Compositions, and Methods for Altering Behavior of Insects Or Other Organisms” (BAYER CROPSCIENCE LP, priority 2013, published 2014)
# Test system: honeybees
# Test: honeybee repulsion experiment at feeding stations with 50% sucrose
# Format: in vivo
# Settings: 2% by weight in 50% sucrose
# Protocol: FIG. 1 describes the feeding station arrangement (A and B) for the honeybee repulsion experiments described herein. As set forth in FIG. 1, panel (A) sets forth the bee cage positions on the left portion of panel (A) with the randomized feeding station positions on the right portion of panel (A). Panel (B) sets forth an alignment of the randomized feeding station positions with a distance of two meters between feeding stations. A total of eight feeding stations were evaluated at a ten meter distance in front of the respective bee hives. The feeding stations were placed two meters apart from one another.
# Honeybees were trained to deep feeders (eight positions), each containing a 50% sucrose solution for one day. After the honeybees were trained to each feeder, the 50% sucrose feeder at randomized positions 1-8 was replaced with a shallow feeder containing a combination of repelling compounds and a 50% sucrose solution according to Table 5. In accordance with FIGS. 5 and 6, 2% by weight of Camphor oil (T4), Ajowan oil (T5), Camphor powder (T6), Rosemary oil (T7), and 2-Decanone (T8) in combination with a 50% sucrose treatment were added to feeders on day two.
# Table 5 describes active agents evaluated for bee repulsion and their randomized feeding station positions. As described in Table 5, T1 (control), T2 (control), T3 (control), T4 (Camphor oil), T5 (Ajowan oil), T6 (Camphor powder), T7 (Rosemary oil), and T8 (2-Decanone).
# FIG. 5 evaluates the number of bees visiting a respective feed station over a time interval. FIG. 6 sets forth the mean number of honeybees visiting feeding station over a period of four hours.
compound,measurement,setting,value
"CCCCCCCCC(C)=O [2-Decanone, 2-decanone]",repellency to honeybees visiting feeding station,at/after 24 hours,exhibited repellency
same,repellency to honeybees visiting feeding station,"at/after 24 hours, listed as 2-decanone",still repellent
same,repellency to honeybees visiting feeding station,full 4 hour assessment period,highly repellent
